Measured values: US20230114728A1 (Venatorx Pharmaceuticals, Inc., priority 2019, published 2023)
pEC50: −log10 of the molar value. ≈ marks a conversion by molar mass, not a printed value. Like-named read-outs stand apart in the source and are kept apart here.

Tests used:
[1] = tested on: N. gonorrhoeae WHO K; experiment: Liquid broth MIC in Fastidious broth; assay type: cell-based; conditions: Neisseria gonorrhoeae
Summary of the method: (§1)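 Broth microdilution in Fastidious broth with 2-fold compound series; inoculum from 24 h chocolate agar colonies, 5×10^5 CFU/mL start. Incubated ~24 hours at 36° C, 5% CO2. MIC read visually as lowest concentration giving <10% growth versus full-growth wells; strains carry mosaic PBP2.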

[2] = tested on: N. gonorrhoeae WHO L; experiment: Liquid broth MIC in Fastidious broth; assay type: cell-based; conditions: Neisseria gonorrhoeae, Fastidious broth
Summary of the method: (§2)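 Colonies were swabbed from chocolate agar after 24 h growth and standardised by optical density at 600 nm. Compounds were serially diluted twofold in Fastidious broth, and bacteria added to give 5×10^5 CFU/mL. After about 24 h at 36 °C in 5% CO2, the lowest concentration allowing under 10% growth was taken as MIC.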

[3] = tested on: N. gonorrhoeae WHO G; experiment: Liquid broth MIC in Fastidious broth; assay type: cell-based; conditions: Neisseria gonorrhoeae, Fastidious broth
Summary of the method: as §2

[4] = tested on: N. gonorrhoeae FA1090; experiment: Liquid broth MIC in Fastidious broth; assay type: cell-based; conditions: Neisseria gonorrhoeae, Fastidious broth
Summary of the method: as §2

[5] = tested on: N. gonorrhoeae WHO Z; experiment: Liquid broth MIC in Fastidious broth; assay type: cell-based; conditions: Neisseria gonorrhoeae
Summary of the method: as §1

[6] = tested on: N. gonorrhoeae ATCC 49226; experiment: Liquid broth MIC in Fastidious broth; assay type: cell-based; conditions: Neisseria gonorrhoeae, ATCC49226, Fastidious broth
Summary of the method: as §2

[7] = tested on: N. gonorrhoeae H041; experiment: Liquid broth MIC in Fastidious broth; assay type: cell-based; conditions: Neisseria gonorrhoeae
Summary of the method: as §1

[8] = tested on: N. gonorrhoeae WHO Q; experiment: Liquid broth MIC in Fastidious broth; assay type: cell-based; conditions: Neisseria gonorrhoeae
Summary of the method: as §1

[9] = molecular target: T1, E. coli K12 PBP3 (Escherichia coli, UniProt P0AD68); experiment: biochemical; assay type: binding
T1 construct: made in house
T1 sequence (P0AD68 1-577): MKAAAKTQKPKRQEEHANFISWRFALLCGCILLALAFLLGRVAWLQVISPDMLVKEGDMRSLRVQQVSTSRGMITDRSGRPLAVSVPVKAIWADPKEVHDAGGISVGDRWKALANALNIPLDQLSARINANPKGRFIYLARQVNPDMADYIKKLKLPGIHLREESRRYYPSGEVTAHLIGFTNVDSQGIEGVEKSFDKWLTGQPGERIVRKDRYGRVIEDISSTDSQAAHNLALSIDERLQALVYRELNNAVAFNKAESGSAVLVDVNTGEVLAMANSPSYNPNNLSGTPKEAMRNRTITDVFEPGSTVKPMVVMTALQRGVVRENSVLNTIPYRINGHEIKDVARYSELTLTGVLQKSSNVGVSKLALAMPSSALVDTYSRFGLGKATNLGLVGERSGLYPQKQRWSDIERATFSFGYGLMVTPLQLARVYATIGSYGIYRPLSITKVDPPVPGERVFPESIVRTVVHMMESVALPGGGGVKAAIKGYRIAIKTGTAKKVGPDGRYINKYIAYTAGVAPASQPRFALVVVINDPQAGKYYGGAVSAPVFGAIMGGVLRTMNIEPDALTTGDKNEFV
Summary of the method: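 Fluorescence polarization (ex 490/em 520 nm) competition of inhibitors against Bocillin-FL at 0.1 μM, read up to 60 min. Final PBP levels: E. coli PBP3 1.5 μM; A. baumannii PBP2 2.5 μM, PBP3 0.2 μM in Tris pH 8.0/NaCl/glycerol/Tween 20; N. gonorrhoeae PBP2 […] in Hepes pH 8.0/NaCl/glycerol. EC50 = concentration halving PBP-bound Bocillin-FL.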

[10] = molecular target: T2, P. aeruginosa PBP3 (Pseudomonas aeruginosa, UniProt G3XD46); experiment: Bocillin-FL fluorescence polarization competition binding assay, P. aeruginosa PBP3; conditions: fluorescence polarization competition binding assay using Bocillin-FL
T2 construct: made in house
T2 sequence (G3XD46 whole entry): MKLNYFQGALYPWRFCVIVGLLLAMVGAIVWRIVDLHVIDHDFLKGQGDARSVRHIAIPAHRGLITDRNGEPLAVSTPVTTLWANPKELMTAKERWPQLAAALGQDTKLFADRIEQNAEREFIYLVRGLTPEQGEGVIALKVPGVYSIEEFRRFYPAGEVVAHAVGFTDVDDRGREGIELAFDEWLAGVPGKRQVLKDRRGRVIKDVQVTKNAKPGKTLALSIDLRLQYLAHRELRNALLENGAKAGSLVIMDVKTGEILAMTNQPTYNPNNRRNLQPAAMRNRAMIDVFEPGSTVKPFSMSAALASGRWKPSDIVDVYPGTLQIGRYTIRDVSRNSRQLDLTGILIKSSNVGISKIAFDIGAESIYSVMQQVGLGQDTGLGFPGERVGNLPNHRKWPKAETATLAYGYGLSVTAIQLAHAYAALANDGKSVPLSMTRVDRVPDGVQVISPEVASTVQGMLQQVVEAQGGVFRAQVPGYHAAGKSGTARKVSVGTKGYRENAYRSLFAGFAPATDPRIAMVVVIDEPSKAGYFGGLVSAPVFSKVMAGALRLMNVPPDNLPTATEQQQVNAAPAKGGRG
Summary of the method: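 Binding of boronic acid inhibitors to purified Pseudomonas aeruginosa (PA01) PBP3 was measured by fluorescence polarization competition with Bocillin-FL, a fluorescent penicillin V. Reactions of 80 μl contained 0.75 μM PBP3 and 0.1 μM Bocillin-FL in 50 mM Hepes (pH 8.0), 300 mM NaCl and 5% (v/v) glycerol, in black 384-well plates. FP (Excitation 490 nm, Emission 520 nm) was read for up to 60 minutes. EC50 is the concentration that halves PBP-bound Bocillin-FL.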

[11] = read-out: Minimum Inhibitory Concentration, N. gonorrhoeae WHO K
[12] = N. gonorrhoeae strain WHO L, read-out: Minimum Inhibitory Concentration, N. gonorrhoeae WHO L
[13] = N. gonorrhoeae strain WHO G, read-out: Minimum Inhibitory Concentration, N. gonorrhoeae WHO G
[14] = N. gonorrhoeae strain FA1090, read-out: Minimum Inhibitory Concentration, N. gonorrhoeae FA1090
[15] = read-out: Minimum Inhibitory Concentration, N. gonorrhoeae WHO Z
[16] = N. gonorrhoeae strain ATCC 49226, read-out: Minimum Inhibitory Concentration, N. gonorrhoeae ATCC 49226
[17] = H041, read-out: Minimum Inhibitory Concentration, N. gonorrhoeae H041
[18] = read-out: Minimum Inhibitory Concentration, N. gonorrhoeae WHO Q
[19] = read-out: Minimum Inhibitory Concentration, WHO K
[20] = N. gonorrhoeae WHO L, read-out: Minimum Inhibitory Concentration, WHO L
[21] = N. gonorrhoeae WHO G, read-out: Minimum Inhibitory Concentration, WHO G
[22] = N. gonorrhoeae FA1090, read-out: Minimum Inhibitory Concentration, FA1090
[23] = read-out: Minimum Inhibitory Concentration, WHO Z
[24] = N. gonorrhoeae ATCC 49226, read-out: Minimum Inhibitory Concentration, ATCC 49226
[25] = H041, read-out: Minimum Inhibitory Concentration, H041
[26] = read-out: Minimum Inhibitory Concentration, WHO Q

SMILES	MIC [1, 11] [µg/mL]	MIC [2, 12] [µg/mL]	MIC [3, 13] [µg/mL]	MIC [4, 14] [µg/mL]	MIC [5, 15] [µg/mL]	MIC [6, 16] [µg/mL]	MIC [7, 17] [µg/mL]	MIC [8, 18] [µg/mL]	pEC50 [9]	P. aeruginosa PBP3 Potency [10]	MIC [1, 19] [µg/mL]	MIC [2, 20] [µg/mL]	MIC [3, 21] [µg/mL]	MIC [4, 22] [µg/mL]	MIC [5, 23] [µg/mL]	MIC [6, 24] [µg/mL]	MIC [7, 25] [µg/mL]	MIC [8, 26] [µg/mL]
NCCN1CCN(C(=O)N[C@H](C(=O)N[C@H]2Cc3cccc(C(=O)O)c3OB2O)c2ccc(O)c([N+](=O)[O-])c2)C(=O)C1=O (single isomer, unassigned) [Example 200]	> 64	> 64	> 64	4 to 8 (≈ 6.85 to 13.7 µM)	> 64	> 64	> 64	> 64	< 3.30	C (C represents a potency between 10 and 30 μM)								
CCN1CCN(C(=O)N[C@H](C(=O)N[C@H]2Cc3cccc(C(=O)O)c3OB2O)c2ccc(C(=O)O)c(F)c2Cl)C(=O)C1=O (single isomer, unassigned) [Example 202]									3.30 to 4.52	C (C represents a potency between 10 and 30 μM)	> 64	> 64	16 to 32 (≈ 26.5 to 52.9 µM)	4 to 8 (≈ 6.61 to 13.2 µM)	16 to 32 (≈ 26.5 to 52.9 µM)	16 to 32 (≈ 26.5 to 52.9 µM)	> 64	> 64
CCN1CCN(C(=O)N[C@@H](C(=O)N[C@H]2Cc3cccc(C(=O)O)c3OB2O)c2ccc(C(=O)O)c(F)c2Cl)C(=O)C1=O (single isomer, unassigned) [Example 203]									> 4.52	D (D represents a potency <10 μM)	16 to 32 (≈ 26.5 to 52.9 µM)	> 64	4 to 8 (≈ 6.61 to 13.2 µM)	0.25 to 0.5 (≈ 0.413 to 0.827 µM)	4 to 8 (≈ 6.61 to 13.2 µM)	4 to 8 (≈ 6.61 to 13.2 µM)	16 to 32 (≈ 26.5 to 52.9 µM)	4 to 8 (≈ 6.61 to 13.2 µM)
NCCN1CCN(C(=O)N[C@H](C(=O)N[C@H]2Cc3cccc(C(=O)O)c3OB2O)c2c(F)cccc2F)C(=O)C1=O (single isomer, unassigned) [Example 204]									< 3.30	B (B represents a potency between 30 μM and 500 μM inclusive)	> 64	> 64	> 64	16 to 32 (≈ 28.6 to 57.2 µM)	> 64	> 64	> 64	> 64
NCCN1CCN(C(=O)N[C@@H](C(=O)N[C@H]2Cc3cccc(C(=O)O)c3OB2O)c2c(F)cccc2Cl)C(=O)C1=O (single isomer, unassigned) [Example 205]									3.30 to 4.52	C (C represents a potency between 10 and 30 μM)	> 64	> 64	> 64	16 to 32 (≈ 27.8 to 55.6 µM)	> 64	> 64	> 64	> 64
NCCN1CCN(C(=O)N[C@H](C(=O)N[C@H]2Cc3cccc(C(=O)O)c3OB2O)c2c(F)cccc2Cl)C(=O)C1=O (single isomer, unassigned) [Example 206]									< 3.30	B (B represents a potency between 30 μM and 500 μM inclusive)	> 64	> 64	> 64	> 64	> 64	> 64	> 64	> 64
CCN1CCN(C(=O)N[C@@H](C(=O)N[C@H]2Cc3ccc(F)c(C(=O)O)c3OB2O)c2c(Cl)cc(O)c(O)c2F)C(=O)C1=O (single isomer, unassigned) [Example 207]									> 4.52	D (D represents a potency <10 μM)	> 64	> 64	16 to 32 (≈ 26.2 to 52.4 µM)	4 to 8 (≈ 6.55 to 13.1 µM)	16 to 32 (≈ 26.2 to 52.4 µM)	16 to 32 (≈ 26.2 to 52.4 µM)	> 64	> 64
NCCCN1CCN(C(=O)NC(C(=O)N[C@H]2Cc3cccc(C(=O)O)c3OB2O)c2c(F)cc(O)cc2F)C(=O)C1=O (stereo partly drawn) [Example 183, (3R)-3-(2-(4-(3-aminopropyl)-2,3-dioxopiperazine-1-carboxamido)-2-(2,6-difluoro-4-hydroxyphenyl)acetamido)-2-hydroxy-3,4-dihydro-2H-benzo[e][1,2]oxaborinine-8-carboxylic acid]	> 64	> 64	16 to 32 (≈ 27.2 to 54.3 µM)	1 to 2 (≈ 1.7 to 3.39 µM)	> 64	16 to 32 (≈ 27.2 to 54.3 µM)	> 64	> 64	> 4.52	D (D represents a potency <10 μM)								
CCN1CCN(C(=O)NC(C(=O)N[C@H]2Cc3cccc(C(=O)O)c3OB2O)c2cc([N+](=O)[O-])c(O)cc2F)C(=O)C1=O (stereo partly drawn) [Example 184, (3R)-3-(2-(4-ethyl-2,3-dioxopiperazine-1-carboxamido)-2-(2-fluoro-4-hydroxy-5-nitrophenyl)acetamido)-2-hydroxy-3,4-dihydro-2H-benzo[e][1,2]oxaborinine-8-carboxylic acid]	16 to 32 (≈ 27.2 to 54.5 µM)	16 to 32 (≈ 27.2 to 54.5 µM)	1 to 2 (≈ 1.7 to 3.41 µM)	< 0.125	4 to 8 (≈ 6.81 to 13.6 µM)	4 to 8 (≈ 6.81 to 13.6 µM)	16 to 32 (≈ 27.2 to 54.5 µM)	4 to 8 (≈ 6.81 to 13.6 µM)	> 4.52	D (D represents a potency <10 μM)								
CCN1CCN(C(=O)NC(C(=O)N[C@H]2Cc3cccc(C(=O)O)c3OB2O)c2ccc(O)c(Cl)c2F)C(=O)C1=O (stereo partly drawn) [Example 185, (3R)-3-(2-(3-chloro-2-fluoro-4-hydroxyphenyl)-2-(4-ethyl-2,3-dioxopiperazine-1-carboxamido)acetamido)-2-hydroxy-3,4-dihydro-2H-benzo[e][1,2]oxaborinine-8-carboxylic acid]	16 to 32 (≈ 27.7 to 55.5 µM)	16 to 32 (≈ 27.7 to 55.5 µM)	4 to 8 (≈ 6.94 to 13.9 µM)	< 0.125	4 to 8 (≈ 6.94 to 13.9 µM)	4 to 8 (≈ 6.94 to 13.9 µM)	16 to 32 (≈ 27.7 to 55.5 µM)	16 to 32 (≈ 27.7 to 55.5 µM)	> 4.52	D (D represents a potency <10 μM)								
